Bounds are passed on as bounds.

Series [1] relates to TrRx in human breast MCF-7 cancer cells. The note with it: 4 μM; cited from earlier work.
In series [2] the target is T1, isolated TrRx (Homo sapiens, UniProt Q16881).
T1 sequence (Q16881 151-649 limits assumed): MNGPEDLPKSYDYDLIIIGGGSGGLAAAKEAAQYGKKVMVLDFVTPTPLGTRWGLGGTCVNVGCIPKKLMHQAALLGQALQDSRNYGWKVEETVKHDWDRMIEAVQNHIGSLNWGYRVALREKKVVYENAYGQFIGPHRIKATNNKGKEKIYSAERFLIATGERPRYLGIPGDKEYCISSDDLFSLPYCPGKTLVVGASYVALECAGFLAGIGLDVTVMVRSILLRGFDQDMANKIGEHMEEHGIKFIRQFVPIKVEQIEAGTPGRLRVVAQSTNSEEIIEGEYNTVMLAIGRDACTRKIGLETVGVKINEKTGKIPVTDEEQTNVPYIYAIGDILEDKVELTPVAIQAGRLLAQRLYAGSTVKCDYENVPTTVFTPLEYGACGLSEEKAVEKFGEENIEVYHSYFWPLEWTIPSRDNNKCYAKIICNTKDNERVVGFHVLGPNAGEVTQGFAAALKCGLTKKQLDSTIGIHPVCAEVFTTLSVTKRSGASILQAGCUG
The following applies: isolated enzyme; read-out: concentration inhibiting 50% of the enzymatic activity of isolated TrRx; cited from earlier work.

Series [3] has as its system MAPKAPK3. The series is described as follows: Protein kinase expression in Caki-1 whole cell lysates (Western blot), MAPKAPK3. It counts as cell-based, human. The note with it: Caki-1, by 12 hours post-treatment. (In western blotting, separated proteins are transferred to a membrane and probed.)
Description: The Caki-1 cells were then lysed and a Western blot analysis was performed with anti-MAPKAPK-3 antibody. Blots were probed with anti-β-Actin antibody as a control for protein loading.
Cell lysis and immunoblotting: Caki-1 cells were seeded into 10-cm dishes at a density of 2.2×10^6 and incubated for 24 hours. […] After microcentrifuging for 5 minutes at 4° C., pellets were treated with ice-cold lysis buffer with cell extraction buffer (BioSource, Camarillo, Calif.) containing 0.1% protease inhibitors and 1% phosphatase inhibitors cocktail (Fisher Scientific, Pittsburgh, Pa.) for 10 minutes, then sonicated for 10 seconds three times, and placed on ice. The lysed cells were centrifuged at 10,000×g at 4° C. for 10 minutes to remove the pellets representing the insoluble cell fraction.
The protein concentration was determined with BCA protein dye reagent (Pierce, Fisher Scientific Pittsburgh, Pa.). […]
For series [4], the system named is Caki-1. Kind of series: Cell viability assay (XTT), Caki-1. The class given is cell-based, human. The following applies: 72 h incubation. An excerpt:
(§1) Cell Culture: Human renal cell carcinoma lines A498, Caki-1 and UO31, as well as the human prostate carcinoma cell lines DU145 and PC3 were newly obtained for these studies from the American Type Culture Collection (ATCC) (Manassas, Va., USA) and cultured in Roswell Park Memorial Institute (RPMI-1640) (Mediatech Inc., Manassas, Va.) media containing 10% fetal bovine serum (FBS, Life Technologies, Grand Island, N.Y.), 1% Minimum Essential Media (MEM) nonessential amino acids (NEAA, Mediatech) and 1% penicillin-streptomycin (PenStrep, Mediatech). HEK-293T cells were newly purchased from ATCC (Manassas, Va., USA) and maintained in Dulbecco's modified Eagle's medium (DMEM) (Mediatech) supplemented with 10% FBS, 1% NEAA and 1% PenStrep. Normal human renal epithelial cells (RPTC) were purchased from Lifeline Cell Technology (Lifeline Cell Technology, Frederick, Md., USA) and maintained in Lifeline's Renal Life Medium from Lifeline Cell Technology supplemented with 2.4 mM L-glutamine, 5 μg/mL rh insulin, 1.0 nM epinephrine, 10 nM triiodothyronine, 0.1 μg/mL hydrocortisone hemisuccinate, 10 ng/mL rhEGF, 0.50% FBS, 5 μg/mL transferrin PS. All cells were cultured at 37° C. and 5% CO2 in a humidified incubator.
The optical absorbance of each well in a 96-well plate was quantified using BioTek ELx808 absorbance microplate reader (BioTek Winooski, Vt.) set at 450 nm wavelength. The percentage of surviving cells was calculated from the ratio of absorbance of treated to untreated cells.
Background: Tetrazolium assays rely on reduction of a dye to a coloured formazan, in cell work by metabolically active cells.

The subject of series [5] is thioredoxin reductase.
Description: After 5, 12 or 24 hours of treatment incubation cells were washed three times in PBS, and lysed by douncing using scrapers and sheer force though syringe with a 34 gauge needle in assay buffer (Abeam Thioredoxin Reductase Assay kit, ab83463) added to 1 mM protease inhibitor cocktail (Abeam, ab65621). The lysates were centrifuged at 10,000×g for 15 minutes at 4° C. to isolate insoluble material. The total protein concentrations of soluble lysates were measured using the BCA Protein Assay (Life Technologies). The soluble lysates were incubated for 20 minutes in assay buffer with a proprietary thioredoxin reductase specific inhibitor before adding a specific substrate, DTNB (5, 5′-dithiobis(2-nitrobenzoic) acid), and measuring activity at 1 minute intervals for 30 minutes using the BioTek fluorescence microplate reader (BioTek U.S., Winooski, Vt.) set at =412 nm. Lysates were tested in duplicate. TrxR activity was calculated based on the linear amount of TNB produced per minute per mg of total protein and corrected for background activity from enzymes other than TrxR in the lysates.
The test system of series [6] is TrRx in human ovarian A2780 cancer cells. The note with it: 10 μM; cited from earlier work.
The subject of series [7] is plasmid pBR322 DNA. The series is described as follows: Electrophoresis mobility shift assay. The class given is binding. The note with it: metal/DNAbp ratios 0.25-2.0, 37° C., 20 h.
Description: Agarose gel electrophoresis assays were performed whereby decreased electrophoretic mobility of both forms were taken as evidence of metal-DNA binding.
Mobility Shift Assay: 10 μL aliquots of pBR322 plasmid DNA (20 μg/mL) in buffer (5 mM Tris/HCl, 50 mM NaClO4, pH=7.39) were incubated with different concentrations of the compounds (2, 3, 4, 5), and titanocene dichloride) (in the range 0.25 and 4.0 metal complex:DNA bp) at 37° C. for 20 h in the dark. Samples of free DNA and cisplatin-DNA were prepared as controls. After the incubation period, the samples were loaded onto the 1% agarose gel. The samples were separated by electrophoresis for 1.5 h at 80 V in Tris-acetate/EDTA buffer (TAE). Afterwards, the gel was stained for 30 min with a solution of GelRed nucleic acid stain.
For series [8], the system named is HEK-293T. The series is described as follows: Cell viability assay (XTT), HEK-293T. The note with it: 72 h incubation; non-tumorigenic human embryonic kidney cell line. The class given is cell-based.
Description: HEK-293T cells were newly purchased from ATCC (Manassas, Va., USA) and maintained in Dulbecco's modified Eagle's medium (DMEM) (Mediatech) supplemented with 10% FBS, 1% NEAA and 1% PenStrep. […] All cells were cultured at 37° C. and 5% CO2 in a humidified incubator.
A short description of series [9]: Stability in solution (DMSO-d6, CDCl3, DMSO/PBS). The class given is physicochemical. An excerpt: (§2) Both compound 2 and compound 3 were less acidic than titanocene dichloride and were soluble in DMSO/water, DMSO/PBS and DMSO/media (1:99) mixtures at micromolar concentrations. These compounds were unusually stable methyl-containing titanocene moieties that were stable as solids at room temperature, while exposed to air in CDCl3 solution for at least five days.

Series [10] in a line: Solubility in DMSO/aqueous mixtures. The following applies: at micromolar concentrations. It counts as physicochemical.
Description: as §2

The test system of series [11] is RPTC. Kind of series: Cell viability assay (XTT), RPTC. The class given is cell-based. The following applies: 72 h incubation; human renal proximal tubular cells.
Description: as §1
Cell Viability Assay: Cells were seeded at a concentration of 5000 cells/90 μl per well of either RPMI or DMEM without phenol red and without antibiotics, supplemented with 10% FBS and 2 mM L-glutamine into tissue culture grade 96-well flat bottom microplates (BioLite Microwell Plate, Fisher Scientific, Waltham, Mass., USA) and grown for 24 h at 37° C. in a humidified incubator. Afterwards, the intermediate dilutions of the compounds were added to the wells (10 μL) to obtain a final concentration ranging from 0.1 to 200 μM, and the cells were incubated for 24 h or 72 h. […] The optical absorbance of each well in a 96-well plate was quantified using BioTek ELx808 absorbance microplate reader (BioTek Winooski, Vt.) set at 450 nm wavelength. The percentage of surviving cells was calculated from the ratio of absorbance of treated to untreated cells.

On to `CC(=O)OC[C@H]1O[C@@H]([S-])[C@H](OC(C)=O)[C@@H](OC(C)=O)[C@@H]1OC(C)=O.CCP(CC)CC.[Au+]` [Auranofin], for which the “inhibition of total TrRx activity in MCF-7 cells” value in series [1] is on record as 18%. Besides, the IC50 in [2] is 0.02 µM; in series [4], 3.08 ± 0.13 µM; in [5] (read-out: IC50 thioredoxin reductase in Caki-1 cells, after twelve hours) it was 0.61 µM. Also, the “expression of MAPKAPK3” value in series [3] is “failed to down-regulate”. Also, in [5] (Caki-1 cells, 5 μM, five hour incubation), the “inhibition of thioredoxin reductase activity” value turned out to be 74.1%. The “inhibition of total TrRx activity in A2780 cells” value in series [6] is 30%.
On to `N.N.[Cl][Pt][Cl]` [Cisplatin, reference compound], for which, in [7], the “effect on electrophoretic mobility of plasmid DNA forms” value (“effect on electrophoretic mobility” below) is “decreased mobility of the CCC form and increased mobility of the OC form”. Besides, the IC50 in series [4] was 29 ± 4.11 µM; in series [8] it was 3.27 ± 0.13 µM.
Regarding `COc1ccc(C[C]2([Ti+2][C]3(Cc4ccc(OC)cc4)C=CC=C3)C=CC=C2)cc1.[Cl-].[Cl-]` [Titanocene Y, reference compound], the IC50 in series [4] was 29.4 ± 4.18 µM; in series [8], more than 200 µM.
On to `[Cl-].[Cl-].[Ti+4].c1cc[cH-]c1.c1cc[cH-]c1` [[(π-C5H5)2TiCl2], reference compound], for which the IC50 in series [4] and in series [8] was more than 200 µM throughout.
As to “[(η-C5H5)2TiMe(μ-mba)Au(MPPF)] [Compound 3]”, the “half-life in DMSO-d6” value in series [9] (DMSO-d6) was “thirty-two”. Further, the “half-life fold larger than corresponding compound 6 / compound 7” value in [9] (DMSO-d6, same solvent) is reported as “sixty-four”. In addition, the “UV-vis spectra over time” value in series [9] (micromolar concentration in 1:99 DMSO/PBS, 23 h, physiological pH) was “did not change over time”. Besides, the “effect on electrophoretic mobility” value in [7] is recorded as “did not affect the mobility”. Moreover, the IC50 was determined as 4.11 ± 0.64 µM in series [4], 3.76 ± 0.21 µM in series [11] and 3.09 ± 0.003 µM in series [8]. In addition, in series [10], the “solubility in DMSO/water, DMSO/PBS and DMSO/media (1:99) mixtures” value is listed as “soluble”.
As for [Au(Hmba)(MPPF)] [Precursor 5], the “effect on electrophoretic mobility” value in series [7] was “did not affect the mobility”. Moreover, the IC50 was 3.6 ± 0.342 µM in series [4], 3.78 ± 0.13 µM in series [11] and 3 ± 0.07 µM in series [8].

Values taken from patent US9315531B2, “Titanocene-gold derivatives comprising thiolato ligands” (Research Foundation of the City University of New York, priority 2014, dated 2016).
